Measured values: patent US7422733B2, “Linkable sialyl Lewis X analogs” (Bracco International B.V., priority 2000, dated 2008)

Assays:
E-selectin [1] = molecular target: T1, E-selectin (Homo sapiens, UniProt P16581); assay: binding of radiolabeled analog 3b to human aortic endothelial cells in vitro (E-selectin binding assay); set-up: endogenous in cells; host or cells: human aortic endothelial cells, stimulated with TNF-alpha or unstimulated
T1 sequence (P16581 22-610): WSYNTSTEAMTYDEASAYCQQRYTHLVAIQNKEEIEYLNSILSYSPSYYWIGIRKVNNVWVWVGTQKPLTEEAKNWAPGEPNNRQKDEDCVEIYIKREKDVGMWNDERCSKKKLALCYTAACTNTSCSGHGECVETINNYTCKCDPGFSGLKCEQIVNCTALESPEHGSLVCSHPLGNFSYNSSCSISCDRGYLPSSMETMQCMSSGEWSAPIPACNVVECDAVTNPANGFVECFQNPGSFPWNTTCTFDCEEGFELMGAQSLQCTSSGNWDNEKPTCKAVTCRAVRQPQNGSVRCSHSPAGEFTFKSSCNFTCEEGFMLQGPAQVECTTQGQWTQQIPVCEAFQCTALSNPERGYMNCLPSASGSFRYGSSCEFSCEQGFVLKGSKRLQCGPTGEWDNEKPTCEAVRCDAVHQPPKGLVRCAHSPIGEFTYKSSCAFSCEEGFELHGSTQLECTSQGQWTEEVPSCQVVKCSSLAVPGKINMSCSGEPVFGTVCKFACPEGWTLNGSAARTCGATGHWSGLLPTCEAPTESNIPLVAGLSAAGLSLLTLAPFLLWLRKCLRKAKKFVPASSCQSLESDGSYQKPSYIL
Description: We evaluated the ability of the radiolabeled acetamido-phenyl Sialyl Lewis^x analog 3b to bind to human aortic endothelial cells in vitro. […] S. A. DeFrees et al., J. Am. Chem. Soc., 117:66-79 (1995). […] The binding sites were specific to native Sialyl Lewis^x, since it was shown that cold unlabeled Sialyl Lewis^x (formula A) at a concentration of 10 mM displaced close to 50% of the bound counts at 0.2 mM concentration.

E-selectin [2] = molecular target: T1, E-selectin; conditions: in vitro, published value; cited from earlier work

SMILES	displacement of bound counts (E-selectin [1]; cold unlabeled competitor at 10 mM, bound 3b counts at 0.2 mM) [%]	Kd (E-selectin [2]) [µM]	behaviour in E-selectin binding assay compared to native Sialyl Lewis^x (E-selectin [1])	concentrations at which the analog bound significantly (E-selectin [1]; activated human aortic endothelial cells, 14C-labeled analog)	increase in the extent of binding in TNF-α stimulated cells over unstimulated control cells (E-selectin [1]; cells stimulated with TNF-α vs unstimulated control cells)	binding relative to published Kd of native Sialyl Lewis^x (E-selectin [1]; compared with published value of 1-2 mM)
CC(=O)NC1C(O)OC(CO)C(OC2OC(CO)C(O)C(OC3(C(=O)O)CC(O)C(NC(C)=O)C([C@H](O)[C@H](O)CO)O3)C2O)C1OC1OC(C)C(O)C(O)C1O (stereo partly drawn) [Sialyl Lewis^x, sialyl Lewis X]	~50	1000 to 2000	–	–	–	–
CC(=O)N[C@H]1[C@H](Oc2ccc(N[14C](C)=O)cc2)O[C@H](CO)[C@@H](O[C@@H]2O[C@H](CO)[C@H](O)[C@H](O[C@]3(C(=O)O)C[C@H](O)[C@@H](NC(C)=O)[C@H]([C@H](O)[C@H](O)CO)O3)[C@H]2O)[C@@H]1O[C@@H]1O[C@@H](C)[C@@H](O)[C@@H](O)[C@@H]1O [compound 3b]	–	–	superior to native Sialyl Lewis^x	0.1-0.2 mM	two-fold increase	ten fold greater
